In patent US20240116863A1, “DIPHENYL THIOUREA AND DIPHENYL UREA DERIVATIVES AS INHIBITORS OF ENDOCYTOSIS” (priority 2022, published 2024):

Assays:
[1] = test system: SARS-CoV-2 D614G strain; type: cell-based
[2] = test system: IAV WSN; type: cell-based, influenza A virus

Row | SMILES | blocked SARS-CoV-2 infections [1] | reduction of SARS-CoV-2 infection [1] | reduction in viral titre after tenth passage [2] [log]
1 | O=C(Nc1ccccc1)Nc1ccccc1 [DPU, 1,3-diphenylurea, reference compound] | did not show any inhibitory effect | – | –
2 | O=C(Nc1cc(C(F)(F)F)cc(C(F)(F)F)c1)Nc1cc(C(F)(F)F)cc(C(F)(F)F)c1 [DPUD-1, 1,3-bis(3,5-bis(trifluoromethyl)phenyl)urea] | – | greater than 99% | > 5
